Here are results for 34 compounds from a polymer gas permeability compilation.

`*c1ccc(Oc2ccc(C3(c4ccc(Oc5ccc(N6C(=O)c7ccc(C(c8ccc9c(c8)C(=O)N(*)C9=O)(C(F)(F)F)C(F)(F)F)cc7C6=O)c(C)c5)cc4)OC(=O)c4ccccc43)cc2)cc1C` (repeat unit) yielded a CH4 permeability of 0.56 Barrer, a CO2 permeability of 21.4 Barrer, an N2 permeability of 1.1 Barrer and an O2 permeability of 5.71 Barrer.
`*Nc1ccc(C(=O)c2ccc(NC(=O)c3cccc(C(*)=O)c3)cc2)cc1` (repeat unit) gave a CO2 permeability of 0.32 Barrer and an O2 permeability of 0.069 Barrer.
`*c1ccc(C(c2ccc(-n3c(=O)c4cc5c(=O)n(*)c(=O)c5cc4c3=O)cc2)(C(F)(F)F)C(F)(F)F)cc1` (repeat unit) displayed a CH4 permeability of 0.78 Barrer, a CO2 permeability of 27.7 Barrer, an H2 permeability of 59.1 Barrer and an N2 permeability of 1.39 Barrer. Further, the O2 permeability amounted to 7.1 Barrer.
Compound `*Oc1ccc(Oc2cccc(*)c2C#N)c(-c2cccc(C)c2)c1` (repeat unit) registered a CH4 permeability of 0.05 Barrer, a CO2 permeability of 1.9 Barrer, an H2 permeability of 6.8 Barrer and an N2 permeability of 0.07 Barrer. This compound yielded an O2 permeability of 0.45 Barrer.
The compound `*/C(C)=C(/*)[Si](C)(C)CCCC` (repeat unit) displayed a CH4 permeability of 17 Barrer, a CO2 permeability of 100 Barrer, an H2 permeability of 65 Barrer and an N2 permeability of 8 Barrer. Besides, the O2 permeability was determined as 29 Barrer.
For `*Nc1ccc(C(c2ccc(NC(=O)c3cccc(C(*)=O)c3)cc2)(C(F)(F)F)C(F)(F)F)cc1` (repeat unit) the same measures were 0.2 Barrer, 9 Barrer, 29 Barrer, 0.42 Barrer and 2.4 Barrer.
The matching figures for `*C(=C(*)c1ccc2c(c1)CCC2)c1ccccc1` (repeat unit): 60 Barrer, 390 Barrer, 360 Barrer, 30 Barrer and 86 Barrer.
Take `*c1nc2cc(-c3ccc4[nH]c(-c5cc(Br)c(*)cc5Br)nc4c3)ccc2[nH]1` (repeat unit): the H2 permeability was determined as 1.89 Barrer and the O2 permeability was 0.07 Barrer.
`*c1cccc(N2C(=O)c3ccc(Oc4ccc5c(c4)C(=O)N(*)C5=O)cc3C2=O)c1` (repeat unit) yielded a CH4 permeability of 0.0064 Barrer, a CO2 permeability of 0.301 Barrer, an N2 permeability of 0.012 Barrer and an O2 permeability of 0.081 Barrer.
Consider `*C(=C(*)c1ccc2c(c1)C(C)(C)c1cc([Si](C)(C)C)ccc1-2)c1ccccc1` (repeat unit), for which the CH4 permeability was 10000 Barrer, the CO2 permeability came out at 18000 Barrer, the H2 permeability came to 8500 Barrer and the N2 permeability amounted to 3400 Barrer. The O2 permeability came to 5400 Barrer.
Turning to `*O[Si](*)(C)CCCCCC` (repeat unit), the N2 permeability amounted to 103 Barrer and the O2 permeability stood at 236 Barrer.
With `*c1cc(C(=O)OCCC(F)(F)C(F)(F)C(F)(F)C(F)(F)C(F)(F)C(F)(F)F)cc(N2C(=O)c3ccc(C(=O)c4ccc5c(c4)C(=O)N(*)C5=O)cc3C2=O)c1` (repeat unit), the CH4 permeability came to 4.19 Barrer, the CO2 permeability amounted to 75 Barrer, the N2 permeability amounted to 4.49 Barrer and the O2 permeability amounted to 19.7 Barrer.
The compound `*c1ccc(Oc2ccc(N3C(=O)c4ccc([Si](C)(C)c5ccc6c(c5)C(=O)N(*)C6=O)cc4C3=O)cc2)cc1` (repeat unit) gave a CH4 permeability of 0.161 Barrer, a CO2 permeability of 3.31 Barrer, an H2 permeability of 9.83 Barrer and an N2 permeability of 0.104 Barrer. The same compound came in with an O2 permeability of 0.636 Barrer.
`*Oc1ccc(C(c2ccc(Oc3ccc(S(=O)(=O)c4ccc(*)cc4)cc3)cc2)c2ccccc2C(=O)O)cc1` (repeat unit): the CH4 permeability worked out at 0.0395 Barrer, the CO2 permeability came to 2.25 Barrer, the H2 permeability is 7.22 Barrer and the N2 permeability amounted to 0.0437 Barrer. The same compound came in with an O2 permeability of 0.441 Barrer.
`*C1C2CC(CF)C(C2)C1*` (repeat unit) came in with a CH4 permeability of 13 Barrer, a CO2 permeability of 200 Barrer, an H2 permeability of 166 Barrer and an N2 permeability of 17 Barrer. Besides, the O2 permeability was determined as 50 Barrer.
In turn, `*Cc1cc(Cl)c(C*)cc1Cl` (repeat unit) showed a CO2 permeability of 0.783 Barrer, an N2 permeability of 0.0271 Barrer and an O2 permeability of 0.181 Barrer.
`*c1ccc(Cc2ccc(N3C(=O)c4ccc(-c5ccc6c(c5)C(=O)N(*)C6=O)cc4C3=O)cc2Cl)c(Cl)c1` (repeat unit) gave a CH4 permeability of 0.0055 Barrer, a CO2 permeability of 0.335 Barrer, an N2 permeability of 0.0107 Barrer and an O2 permeability of 0.0957 Barrer.
Turning to `*Oc1c(Br)cc(C2(c3cc(Br)c(OC(=O)c4cccc(C(*)=O)c4)c(Br)c3)OC(=O)c3ccccc32)cc1Br` (repeat unit), the CH4 permeability came out at 0.206 Barrer, the CO2 permeability was found to be 8.34 Barrer, the H2 permeability is 27.1 Barrer and the N2 permeability was 0.282 Barrer. The O2 permeability is 1.96 Barrer.
`*Oc1cc2c(cc1O*)C1(CC2(C)C)CC(C)(C)c2cc3c(cc21)Oc1c(C#N)c(*)c(*)c(C#N)c1O3` (repeat unit) gave a CH4 permeability of 298 Barrer, a CO2 permeability of 5090 Barrer, an H2 permeability of 2280 Barrer and an N2 permeability of 256 Barrer. Moreover, the O2 permeability came out at 913 Barrer.
`*c1ccc(Sc2ccc(N3C(=O)c4ccc(C(c5ccc6c(c5)C(=O)N(*)C6=O)(C(F)(F)F)C(F)(F)F)cc4C3=O)cc2)cc1` (repeat unit) gave a CH4 permeability of 0.66 Barrer, a CO2 permeability of 23.1 Barrer, an N2 permeability of 0.87 Barrer and an O2 permeability of 4.66 Barrer.
Compound `*c1ccc(C(c2ccc(-n3c(=O)c4cc5oc6cc7c(cc6oc5cc4c3=O)C3(CC(C)(C)c4cc5oc6cc8c(=O)n(*)c(=O)c8cc6oc5cc43)CC7(C)C)cc2)(C(F)(F)F)C(F)(F)F)cc1` (repeat unit) had a CH4 permeability of 27 Barrer, a CO2 permeability of 520 Barrer, an H2 permeability of 360 Barrer and an N2 permeability of 23 Barrer. The same compound displayed an O2 permeability of 85 Barrer.
Turning to `*c1cc(C(=O)OCCC(F)(F)C(F)(F)C(F)(F)C(F)(F)C(F)(F)C(F)(F)F)cc(N2C(=O)c3ccc(C(c4ccc5c(c4)C(=O)N(*)C5=O)(C(F)(F)F)C(F)(F)F)cc3C2=O)c1` (repeat unit), the CH4 permeability was found to be 0.44 Barrer, the CO2 permeability is 17.8 Barrer, the N2 permeability turned out to be 0.74 Barrer and the O2 permeability came out at 4.74 Barrer.
For the compound `*Oc1ccc(-c2ccc(C3CCC(Oc4ccc(C5(c6ccc(*)cc6)c6ccccc6-c6ccccc65)cc4)C(C(F)(F)F)C3)s2)cc1C(F)(F)F` (repeat unit), the CH4 permeability was found to be 1.8 Barrer, the CO2 permeability was determined as 35.7 Barrer, the H2 permeability was 55 Barrer and the N2 permeability amounted to 1.99 Barrer. The same compound registered an O2 permeability of 8.4 Barrer.
In turn, `*CC(*)(C)C(=O)OCCOCC` (repeat unit) gave a CH4 permeability of 1.23 Barrer, a CO2 permeability of 8.56 Barrer, an N2 permeability of 0.385 Barrer and an O2 permeability of 1.45 Barrer.
For `*/C=C/C1CCC(*)C1` (repeat unit), the CH4 permeability was 2.5 Barrer, the CO2 permeability was 15.4 Barrer, the H2 permeability amounted to 21 Barrer and the N2 permeability came out at 1.5 Barrer. The compound also came in with an O2 permeability of 2.8 Barrer.
With `*N=P(*)(C)c1ccccc1` (repeat unit), the CH4 permeability is 0.7 Barrer, the CO2 permeability amounted to 6.5 Barrer, the N2 permeability was 0.6 Barrer and the O2 permeability was 1.8 Barrer.
Compound `*CC(*)(F)F` (repeat unit) returned a CH4 permeability of 0.02 Barrer, a CO2 permeability of 0.517 Barrer, an H2 permeability of 0.538 Barrer and an N2 permeability of 0.0223 Barrer. Further, the O2 permeability came out at 0.0826 Barrer.
The compound `*C1C(*)C2CC1C1C2C([Si](C)(C)C)C1[Si](C)(C)C` (repeat unit) yielded a CH4 permeability of 3310 Barrer, a CO2 permeability of 11300 Barrer, an H2 permeability of 4090 Barrer and an N2 permeability of 1240 Barrer. The compound also came in with an O2 permeability of 2380 Barrer.
Turning to `*c1ccc(-c2ccc(Oc3ccc4c(c3)C3(CC4(C)C)CC(C)(C)c4ccc(Oc5ccc(-c6ccc(N7C(=O)c8ccc(Oc9ccc%10c(c9)C(=O)N(*)C%10=O)cc8C7=O)cc6)cc5C(F)(F)F)cc43)c(C(F)(F)F)c2)cc1` (repeat unit), the CH4 permeability turned out to be 0.41 Barrer, the CO2 permeability turned out to be 22.6 Barrer, the N2 permeability came out at 1.12 Barrer and the O2 permeability is 13.1 Barrer.
Turning to `*OC(=O)Oc1ccc(C(=C(Cl)Cl)c2ccc(*)cc2)cc1` (repeat unit), the CH4 permeability is 0.27 Barrer, the CO2 permeability was found to be 6.5 Barrer, the H2 permeability amounted to 11.3 Barrer and the N2 permeability was found to be 0.26 Barrer. For the same compound, the O2 permeability came to 1.4 Barrer.
In turn, `*Oc1ccc(C(C)(C)c2ccc(OC(=O)c3ccc(C(*)=O)cc3)cc2)cc1` (repeat unit) registered a CH4 permeability of 0.678 Barrer, a CO2 permeability of 11.6 Barrer, an N2 permeability of 0.625 Barrer and an O2 permeability of 2.5 Barrer.
In turn, `*Oc1cc(C)c(C(c2cc(C(C)C)c(Oc3ccc(S(=O)(=O)c4ccc(*)cc4)cc3)cc2C)c2ccccc2C(=O)O)cc1C(C)C` (repeat unit) displayed a CH4 permeability of 1.13 Barrer, a CO2 permeability of 25.1 Barrer, an H2 permeability of 49.6 Barrer and an N2 permeability of 0.757 Barrer. The compound further gave an O2 permeability of 4.53 Barrer.
Compound `*c1cc2c(cc1O)C1(CC2(C)C)CC(C)(C)c2cc(N3C(=O)C4C(C3=O)C3(Br)C(Br)=C(Br)C4(Br)C4C(=O)N(*)C(=O)C43)c(O)cc21` (repeat unit) came in with a CH4 permeability of 4.9 Barrer, a CO2 permeability of 138 Barrer, an H2 permeability of 274 Barrer and an N2 permeability of 5.3 Barrer. In addition, the O2 permeability came out at 31.2 Barrer.
Regarding `*/C=C/c1ccc(*)cc1[Si](C)(C)CCCCCCCC` (repeat unit), the CO2 permeability was found to be 60 Barrer, the N2 permeability amounted to 3.9 Barrer and the O2 permeability was 12 Barrer.
